# Test results: BigSolDB 2.1
compound,measurement,setting,value
COc1cc2c(cc1OC)C(=O)CC2,solubility (mole fraction),"in methanol, 303.15 K",0.0317
same,solubility (mole fraction),"in methanol, 308.15 K",0.0418
same,solubility (mole fraction),"in methanol, 313.15 K",0.0547
same,solubility (mole fraction),"in methanol, 318.15 K",0.071
same,solubility (mole fraction),"in methanol, 323.15 K",0.0902
same,solubility (mole fraction),"in methyl acetate, 283.15 K",0.0426
same,solubility (mole fraction),"in methyl acetate, 288.15 K",0.053
same,solubility (mole fraction),"in methyl acetate, 293.15 K",0.0665
same,solubility (mole fraction),"in methyl acetate, 298.15 K",0.0793
same,solubility (mole fraction),"in methyl acetate, 303.15 K",0.0986
same,solubility (mole fraction),"in methyl acetate, 308.15 K",0.118
same,solubility (mole fraction),"in methyl acetate, 313.15 K",0.139
same,solubility (mole fraction),"in methyl acetate, 318.15 K",0.159
same,solubility (mole fraction),"in methyl acetate, 323.15 K",0.185
same,solubility (mole fraction),"in n-butanol, 283.15 K",0.0118
same,solubility (mole fraction),"in n-butanol, 288.15 K",0.0155
same,solubility (mole fraction),"in n-butanol, 293.15 K",0.02
same,solubility (mole fraction),"in n-butanol, 298.15 K",0.0268
same,solubility (mole fraction),"in n-butanol, 303.15 K",0.0352
same,solubility (mole fraction),"in n-butanol, 308.15 K",0.0451
same,solubility (mole fraction),"in n-butanol, 313.15 K",0.0583
same,solubility (mole fraction),"in n-butanol, 318.15 K",0.0739
same,solubility (mole fraction),"in n-butanol, 323.15 K",0.0925
same,solubility (mole fraction),"in n-butyl acetate, 283.15 K",0.025
same,solubility (mole fraction),"in n-butyl acetate, 288.15 K",0.0294
same,solubility (mole fraction),"in n-butyl acetate, 293.15 K",0.0359
same,solubility (mole fraction),"in n-butyl acetate, 298.15 K",0.0428
same,solubility (mole fraction),"in n-butyl acetate, 303.15 K",0.0503
same,solubility (mole fraction),"in n-butyl acetate, 308.15 K",0.0593
same,solubility (mole fraction),"in n-butyl acetate, 313.15 K",0.0695
same,solubility (mole fraction),"in n-butyl acetate, 318.15 K",0.0795
same,solubility (mole fraction),"in n-butyl acetate, 323.15 K",0.0897
same,solubility (mole fraction),"in n-pentanol, 283.15 K",0.0115
same,solubility (mole fraction),"in n-pentanol, 288.15 K",0.0156
same,solubility (mole fraction),"in n-pentanol, 293.15 K",0.0216
same,solubility (mole fraction),"in n-pentanol, 298.15 K",0.0278
same,solubility (mole fraction),"in n-pentanol, 303.15 K",0.0386
same,solubility (mole fraction),"in n-pentanol, 308.15 K",0.0509
same,solubility (mole fraction),"in n-pentanol, 313.15 K",0.0659
same,solubility (mole fraction),"in n-pentanol, 318.15 K",0.0827
same,solubility (mole fraction),"in n-pentanol, 323.15 K",0.104
same,solubility (mole fraction),"in n-propanol, 283.15 K",0.00925
same,solubility (mole fraction),"in n-propanol, 288.15 K",0.0119
same,solubility (mole fraction),"in n-propanol, 293.15 K",0.0158
same,solubility (mole fraction),"in n-propanol, 298.15 K",0.0206
same,solubility (mole fraction),"in n-propanol, 303.15 K",0.0281
same,solubility (mole fraction),"in n-propanol, 308.15 K",0.0356
same,solubility (mole fraction),"in n-propanol, 313.15 K",0.0457
same,solubility (mole fraction),"in n-propanol, 318.15 K",0.0579
same,solubility (mole fraction),"in n-propanol, 323.15 K",0.0695
same,solubility (mole fraction),"in n-propyl acetate, 283.15 K",0.034
same,solubility (mole fraction),"in n-propyl acetate, 288.15 K",0.0424
same,solubility (mole fraction),"in n-propyl acetate, 293.15 K",0.05
same,solubility (mole fraction),"in n-propyl acetate, 298.15 K",0.0596
same,solubility (mole fraction),"in n-propyl acetate, 303.15 K",0.0694
same,solubility (mole fraction),"in n-propyl acetate, 308.15 K",0.0821
same,solubility (mole fraction),"in n-propyl acetate, 313.15 K",0.0962
same,solubility (mole fraction),"in n-propyl acetate, 318.15 K",0.109
same,solubility (mole fraction),"in n-propyl acetate, 323.15 K",0.129
same,solubility (mole fraction),"in sec-butanol, 283.15 K",0.0105
same,solubility (mole fraction),"in sec-butanol, 288.15 K",0.0147
same,solubility (mole fraction),"in sec-butanol, 293.15 K",0.0199
same,solubility (mole fraction),"in sec-butanol, 298.15 K",0.0272
same,solubility (mole fraction),"in sec-butanol, 303.15 K",0.0357
same,solubility (mole fraction),"in sec-butanol, 308.15 K",0.0461
same,solubility (mole fraction),"in sec-butanol, 313.15 K",0.0612
same,solubility (mole fraction),"in sec-butanol, 318.15 K",0.0766
same,solubility (mole fraction),"in sec-butanol, 323.15 K",0.0943
